Source: patent US4091097A, “Treatment of elevated histamine and uric acid levels” (Zaidan Hojin Biseibutsu Kagaku Kenkyu Kai, priority 1973, dated 1978)
Like-named read-outs stand apart in the source and are kept apart here.

Experiments:
[1] = tested on: pyrexia induced by TTG No. 2; test: Antipyretic Activity in Pyrexia-Induced Rabbits; type: in vivo, Japanese rabbits; conditions: 200 mg./kg. oral
Procedure: Common white male Japanese rabbits, 2.0 - 3.0 kg. body weight, were injected through the ear vein with 20 μg./kg. of a pyrexia inducer TTG No. 2, purified polysaccharide preparation obtained from Pseudomonas aeruginosa (marketed by Fujisawa Pharmaceutical Company, Japan), and the body temperature was monitored with a rectal thermister-type thermometer. Three hours prior to the TTG injection four rabbits in each experimental section orally received the test drug in the dose of 200 mg./kg. One group received aspirin in a dose of 100 mg./kg and a control group no drug.

[2] = tested on: acetic acid-induced stretching movements; test: Analgesic Activity in mice (acetic acid stretching); type: in vivo, mice (DDY Strain); conditions: control (no drug) 53
Procedure: Male mice of the DDY Strain having mean body weight of 20 g. were divided to the groups of 10 animals each, to which compounds of this invention or aminopyrine in saline solution were administered intraperitoneally (i.p.). The dosage was 200, 50 or 12.5 mg./kg. Then 30 minutes later, 0.2 ml. per 20 g. body weight of 0.7% acetic acid in saline was injected intraperitoneally and the number of characteristic stretching movements counted for 20 minute period and compared with a control group receiving no analgesic.

histidine decarboxylase = target: T1, histidine decarboxylase (Rattus norvegicus, UniProt P16453); test: Inhibition of Histidine Decarboxylase (14C-histamine formation); type: biochemical, fetal rats
T1 construct: a crude enzyme preparation obtained from fetal rats; from tissue
T1 sequence (P16453 1-656): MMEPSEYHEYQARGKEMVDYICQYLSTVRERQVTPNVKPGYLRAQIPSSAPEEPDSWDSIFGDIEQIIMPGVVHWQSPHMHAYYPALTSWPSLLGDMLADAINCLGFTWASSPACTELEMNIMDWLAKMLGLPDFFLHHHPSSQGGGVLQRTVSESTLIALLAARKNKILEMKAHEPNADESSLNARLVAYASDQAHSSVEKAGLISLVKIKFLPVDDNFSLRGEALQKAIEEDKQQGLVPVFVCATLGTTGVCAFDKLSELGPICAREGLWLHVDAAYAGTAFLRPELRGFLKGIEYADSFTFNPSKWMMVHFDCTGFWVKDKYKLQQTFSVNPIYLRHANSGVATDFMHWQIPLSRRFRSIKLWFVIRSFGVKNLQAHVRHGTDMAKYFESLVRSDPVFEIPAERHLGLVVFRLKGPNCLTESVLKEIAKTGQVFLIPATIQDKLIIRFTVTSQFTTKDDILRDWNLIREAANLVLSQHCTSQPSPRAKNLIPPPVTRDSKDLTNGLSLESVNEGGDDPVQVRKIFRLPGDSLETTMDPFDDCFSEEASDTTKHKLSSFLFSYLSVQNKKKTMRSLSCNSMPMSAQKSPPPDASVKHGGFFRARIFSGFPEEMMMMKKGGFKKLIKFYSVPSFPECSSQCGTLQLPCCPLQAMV
Procedure: After two hours of incubation at 37° C., the histamine 2-^14 C formed was collected on an ion exchange resin ("Amberlite" CG-50, ammonia type) from which, after washing with water, the histamine was liberated in 1N aqueous ammonia solution and radioactivity was measured.

mice and rats = conditions: in vivo
Procedure: The acute toxicity was determined for oral and intraperitoneal administration with mice and rats (6 mice and 2 rats in one dose group), and the LD50 value, i.e., the single application dose killing 50% of the test animals, was estimated.

[3] = 2 hrs. after TTG, control (no drug) 1.2
[4] = 4 hrs. after TTG, control (no drug) 1.6
[5] = pH 6.8, two hours at 37° C., read-out: Histidine Decarboxylase Inhibition ID50

SMILES	IC50 (histidine decarboxylase; [5]) [nM]	Antipyretic Activity: Elevation of Body Temperature [1, 3] [°C]	Antipyretic Activity: Elevation of Body Temperature [1, 4] [°C]	Analgesic Activity: Stretching Count (20 minutes) ([2]; 50 mg./kg. i.p.)	Analgesic Activity: Stretching Count (20 minutes) ([2]; 200 mg./kg. i.p.)	comparative toxicity (mice and rats)	IC50 (histidine decarboxylase) [nM]
Cc1c(N(C)C)c(=O)n(-c2ccccc2)n1C [Aminopyrine, reference compound]	–	0.4	0.3	8	2	–	–
O=C(Nc1ccc(O)c(Cl)c1)c1ccccc1O [Compound 2]	2500	0.6	0.5	30	12	–	–
O=C(Nc1cc(Br)c(O)c(Br)c1)c1ccccc1O [Compound 3]	–	0.6	0.5	17	6	comparatively more toxic than the others	23
O=C(Nc1ccc(O)c(Br)c1)c1ccc(O)cc1O [Compound 5]	30	0.5	0.4	14	6	comparatively more toxic than the others	–
O=C(Nc1cc(Br)c(O)c(C(=O)O)c1)c1ccccc1O [Compound 6]	260	0.5	0.5	25	12	comparatively more toxic than the others	–
Cc1ccc(C(=O)Nc2cc(Cl)c(O)c(Cl)c2)c(O)c1 [Compound 8]	–	0.6	0.5	40	21	–	96
CCOc1c(Cl)cc(NC(=O)c2ccc(O)cc2O)cc1Br [Compound 15]	310	–	–	–	–	comparatively more toxic than the others	–
CCc1ccc(O)c(C(=O)Nc2cc(Br)c(O)c(CC)c2)c1 [Compound 18]	710	–	–	–	–	–	–
Cc1cc(NC(=O)c2ccc(Br)cc2O)cc(C(=O)O)c1O [Compound 19]	330	–	–	–	–	comparatively more toxic than the others	–
O=C(Nc1ccc(O)c(Cl)c1)c1cc(Br)ccc1O [Compound 20]	–	–	–	–	–	comparatively more toxic than the others	580
CCOc1ccc(NC(=O)c2ccc(F)cc2O)cc1Cl [Compound 21]	500	–	–	–	–	–	–
Cc1ccc(C(=O)Nc2cc(Br)c(O)c(Br)c2)c(O)c1 [Compound 22]	–	–	–	–	–	comparatively more toxic than the others	800
Nc1c(Cl)cc(NC(=O)c2ccccc2O)cc1Cl [Compound 24]	140	–	–	–	–	comparatively more toxic than the others	–
CC(=O)Oc1ccccc1C(=O)Nc1cc(Cl)c(OC(C)=O)c(Cl)c1 [Compound 30]	24	0.5	0.5	14	4	–	–
CC(C)CC(=O)Oc1ccccc1C(=O)Nc1cc(Cl)c(OC(=O)CC(C)C)c(Cl)c1 [Compound 31]	17	0.6	0.5	13	4	–	–
CC(=O)Oc1cc(O)ccc1C(=O)Nc1cc(C)c(OC(C)=O)c(Cl)c1 [Compound 34]	390	–	–	–	–	–	–
CC(=O)Oc1ccc(O)cc1C(=O)Nc1cc(C)c(OC(C)=O)c(Cl)c1 [Compound 35]	600	–	–	–	–	–	–
CCCC(=O)Oc1ccc(C(=O)Nc2cc(Cl)c(N)c(C(=O)OC)c2)c(OC(=O)CCC)c1 [Compound 42]	510	–	–	–	–	comparatively more toxic than the others	–
CCC(=O)Oc1ccc(OC(=O)CC)c(C(=O)Nc2cc(Cl)c(N)c(C(=O)OC)c2)c1 [Compound 43]	530	–	–	–	–	comparatively more toxic than the others	–
CCOC(=O)c1cc(NC(=O)c2ccccc2OC(C)=O)cc(Cl)c1O [Compound 44]	230	–	–	–	–	–	–

The next lines start with results.

IC50 (histidine decarboxylase; [5]) [nM]	SMILES	Antipyretic Activity: Elevation of Body Temperature [1, 3] [°C]	Antipyretic Activity: Elevation of Body Temperature [1, 4] [°C]	Analgesic Activity: Stretching Count (20 minutes) ([2]; 50 mg./kg. i.p.)	Analgesic Activity: Stretching Count (20 minutes) ([2]; 200 mg./kg. i.p.)	comparative toxicity (mice and rats)	IC50 (histidine decarboxylase) [nM]
28	O=C(Nc1cc(Cl)c(O)c(Cl)c1)c1ccc(O)cc1O [Compound 4]	0.5	0.4	13	6	–	–
110	O=C(Nc1cc(Cl)c(O)c(C(=O)O)c1)c1ccccc1O [Compound 7]	0.6	0.5	40	14	–	–
89	O=C(Nc1cc(Cl)c(O)c(Cl)c1)c1ccc(F)cc1O [Compound 9]	0.6	0.6	35	20	–	–
230	O=C(Nc1cc(Cl)c(O)c(Cl)c1)c1cc(F)ccc1O [Compound 10]	0.6	0.5	35	20	–	–
210	COc1c(Cl)cc(NC(=O)c2ccccc2O)cc1Cl [Compound 11]	–	–	–	–	–	–
120	Cc1cc(NC(=O)c2ccccc2O)cc(Cl)c1O [Compound 12]	–	–	–	–	–	–
230	O=C(Nc1cc(F)c(O)c(Cl)c1)c1ccccc1O [Compound 13]	–	–	–	–	–	–
810	CCc1cc(NC(=O)c2ccc(O)cc2O)cc(F)c1OC [Compound 16]	–	–	–	–	–	–
460	CCc1ccc(C(=O)Nc2cc(Br)c(O)c(CC)c2)c(O)c1 [Compound 17]	–	–	–	–	–	–
500	O=C(Nc1cc(Cl)c(O)c(C(=O)O)c1)c1cc(O)ccc1O [Compound 23]	–	–	–	–	–	–
690	COc1c(F)cc(NC(=O)c2cc(Cl)ccc2O)cc1Cl [Compound 26]	–	–	–	–	–	–
790	CCc1cc(NC(=O)c2ccc(C)cc2O)cc(C(=O)OC)c1O [Compound 28]	–	–	–	–	–	–
980	CCc1cc(NC(=O)c2cc(C)ccc2O)cc(C(=O)OC)c1O [Compound 29]	–	–	–	–	–	–
490	CCC(=O)Oc1ccc(NC(=O)c2ccc(O)cc2OC(=O)CC)cc1Br [Compound 36]	–	–	–	–	–	–
420	CC(=O)Oc1cc(F)ccc1C(=O)Nc1cc(C)c(OC(C)=O)c(Br)c1 [Compound 37]	–	–	–	–	–	–
200	CCC(=O)Oc1ccccc1C(=O)Nc1cc(Cl)c(N)c(Cl)c1 [Compound 38]	–	–	–	–	–	–
190	CC(=O)Oc1ccc(C(=O)Nc2cc(Cl)c(O)c(Cl)c2)c(OC(C)=O)c1 [Compound 39]	–	–	–	–	–	–
310	CC(=O)Oc1ccc(OC(C)=O)c(C(=O)Nc2cc(Cl)c(O)c(Cl)c2)c1 [Compound 40]	–	–	–	–	–	–
320	CCOC(=O)c1cc(NC(=O)c2ccccc2OC(=O)c2ccccc2)cc(Cl)c1O [Compound 41]	–	–	–	–	–	–
